Reference: patent US20040266862A1, “Method of improving animal tissue quality by supplementing the animal diet with mixed tocotrienols” (priority 2003, published 2004)
Marks after values point to notes of the source that are not given here.

Legend:
Assay type in all cases: in vivo
cattle [1] = assay: 2002-03 cattle feed test: moisture, fat and TBARS content of raw ground beef patties; conditions: 300 ppm in diet
Text: (§1) Applicants also assessed the effects of antioxidant supplementation on beef quality in an experiment in which ground beef and steaks from cattle fed one of four dietary treatments were compared. Forty steers (average weight 1082 lbs.) were blocked by weight (heavy or light) and assigned to eight outdoor group pens. Pens were randomly assigned within weight blocks to four dietary treatments (two pens per dietary treatment): control, 300 ppm gamma-tocopherol, 150 ppm MT or 300 ppm MT. As in the swine and poultry feed trials, the MT supplement was obtained commercially from Fuji Chemical Industries (U.S.A.) Inc. of Robbinsville, N.J., and contained 7.5% alpha-, 12.3% gamma- and 3.0% delta-tocotrienol for a total MT content of 22.8 wt %, as well as 7.2% alpha-tocopherol. The control diet was not supplemented with even the NRC (1996) recommended level of vitamin E (15 to 60 ppm). […]
(§2) The dietary treatments were top-dressed onto the feed and mixed with the morning daily feed. The target level for feeding gamma-tocopherol was calculated to be 2 g per animal per day. […]
Four pounds of lean and one pound of fat were harvested from each steer and mixed to produce ground beef patties with a targeted fat content of 20%. […] The pre- and post-display ground beef patties were analyzed for oxidative stability by determining their TBARS concentration.

cattle [2] = assay: 2002-03 cattle feed test: raw ribeye steak subjective color; conditions: 300 ppm in diet
Text: (§3) Applicants also assessed the effects of antioxidant supplementation on beef quality in an experiment in which ground beef and steaks from cattle fed one of four dietary treatments were compared. Forty steers (average weight 1082 lbs.) were blocked by weight (heavy or light) and assigned to eight outdoor group pens. Pens were randomly assigned within weight blocks to four dietary treatments (two pens per dietary treatment): control, 300 ppm gamma-tocopherol, 150 ppm MT or 300 ppm MT. As in the swine and poultry feed trials, the MT supplement was obtained commercially from Fuji Chemical Industries (U.S.A.) Inc. of Robbinsville, N.J., and contained 7.5% alpha-, 12.3% gamma- and 3.0% delta-tocotrienol for a total MT content of 22.8 wt %, as well as 7.2% alpha-tocopherol. The control diet was not supplemented with even the NRC (1996) recommended level of vitamin E (15 to 60 ppm).
(§4) The steers were fed rolled corn diets with added cottonseed hulls that contained little or no vitamin E. The corn grain used in this trial was more than two years old so that it would be largely depleted of vitamin E. The steers were gradually adapted to an 80% grain-based diet and fed the low vitamin E diet for over one month prior to the start of the dietary supplementation period. Steers then were fed their respective dietary treatments for 54 days, starting Dec. 18, 2002 and ending Feb. 10, 2003.
(§5) The dietary treatments were top-dressed onto the feed and mixed with the morning daily feed. The target level for feeding gamma-tocopherol was calculated to be 2 g per animal per day. Mineral oil was used as a carrier for the gamma-tocopherol. The two target amounts of mixed tocotrienols were equivalent to, or half of, the gamma tocopherol level. The MT compounds were diluted with cornmeal to supply the required amount of mixed tocotrienols.
(§6) On the day following delivery of the beef rib sections to Kansas State University, ribs were boned out, vacuum packaged, and held at approximately (2° C.) until thirteen days postmortem, at which time the ribs were faced at the 13th rib region. The ribs were cut into 2.54 cm thick ribeye steaks, one steak from each rib to be used for color appraisal under retail display conditions and one steak for sensory evaluation. The steaks for sensory evaluation were vacuum-packaged and frozen.
(§7) The ribeye steaks utilized for color evaluation were placed onto 17S foam trays with meat, fish, and poultry pads (Dri-Loc AC-50) and wrapped with polyvinyl chloride film. The packaged steaks were placed under simulated retail display at 34±3° F. under 1614 lux (150±5 foot candles) light intensity in open-top display cases. The cases were programmed to defrost twice daily at 12-hour intervals. Case temperature was monitored using temperature recorders. An eight-member trained panel assigned subjective color and discoloration scores on days 0, 1, 2, 3, 4, 5 and 7. Pre-storage color was evaluated on an eight point scale. Panelists evaluated post-13 day storage color using a five-point scale with 0.5 intervals. Minolta color measurements were taken on days 0 and 7 using a Hunter Lab MiniScan™ Spectrophotometer (1.25 inch diameter aperture).

cattle [3] = assay: 2002-03 cattle feed test: raw ribeye steak Hunter Lab color evaluation
Text: as §3, §4, §5, §6, §7

cattle [4] = assay: 2002-03 cattle feed test: TBARS content of raw ribeye steaks; conditions: 300 ppm in diet
Text: as §1, with “alpha-tocopherol.” for “alpha-tocopherol. The control diet was not supplemented with even the NRC (1996) recommended level of vitamin E (15 to 60 ppm).”
as §2
The ribeye steaks utilized for color evaluation were placed onto 17S foam trays with meat, fish, and poultry pads (Dri-Loc AC-50) and wrapped with polyvinyl chloride film. […] Case temperature was monitored using temperature recorders. […] Pre-storage color was evaluated on an eight point scale. Panelists evaluated post-13 day storage color using a five-point scale with 0.5 intervals. […]

cattle [5] = assay: 2002-03 cattle feed test: sensory characteristics of cooked ribeye steaks; conditions: freshly cooked ribeye steaks; scale of 1 to 8; 300 ppm in diet
Text: as §3, §4, §5, §6
The frozen ribeye steaks designated for sensory evaluation were thawed for >24 hours at 3-4° C. and cooked in a Blodgett oven set at 163° C. The steaks were turned at 40° C. and removed from the oven at 70° C. The cooked steaks were cut into 2.54 cm×1.25 cm×1.25 cm cubes. The cubes were placed in double boilers and held warm on burners set at 107° C. until serving. Each panelist received two cubes in random order with a maximum of eight samples per session. An eight-point scale with 0.5 increments was used to score sensory attributes, with 8 being most tender, flavorful, or juicy and 1 being the least tender, flavorful, or juicy.

Q: Which results are given for `Cc1c(O)cc2c(c1C)O[C@](C)(CCC[C@H](C)CCC[C@H](C)CCCC(C)C)CC2` [GT, gamma-tocopherol]?
A: TBARS content (cattle [1]; Post-display (5 days retail display)): 0.663^ab Mg Malonaldehyde/1000 g ground beef; TBARS content (cattle [1]; Pre-display): 0.173 Mg Malonaldehyde/1000 g ground beef; subjective color score (cattle [2]; Pre-storage, eight point scale (1.0 = Bleached red, 8.0 = Very dark red)): 4.34; subjective color score (cattle [2]; post-13 day storage, display Day 0, five-point scale (1.0 = Very bright cherry red, 5.0 = Very dark red/purple to brown)): 2.19; subjective color score (cattle [2]; post-13 day storage, display Day 1, five-point scale): 2.28; subjective color score (cattle [2]; post-13 day storage, display Day 2, five-point scale): 2.29; subjective color score (cattle [2]; post-13 day storage, display Day 3, five-point scale): 2.61; subjective color score (cattle [2]; post-13 day storage, display Day 4, five-point scale): 2.80^b; subjective color score (cattle [2]; post-13 day storage, display Day 5, five-point scale): 3.02^b; subjective color score (cattle [2]; post-13 day storage, display Day 7, five-point scale): 3.29^b; Pre-display pH (cattle [3]; 300 ppm in diet): 5.53; Hunter L (cattle [3]; display Day 0, 300 ppm in diet): 41.35; Hunter a (cattle [3]; display Day 0, 300 ppm in diet): 32.82; Hunter b (cattle [3]; display Day 0, 300 ppm in diet): 25.33; Hunter L (cattle [3]; display Day 7, 300 ppm in diet): 40.03^b; Hunter a (cattle [3]; display Day 7, 300 ppm in diet): 30.26^b; Hunter b (cattle [3]; display Day 7, 300 ppm in diet): 23.35^b; TBARS content (cattle [4]; Post-display): 0.411^b Mg Malonaldehyde/1000 g steak; TBARS content (cattle [4]; Pre-display): 0.076 Mg Malonaldehyde/1000 g steak; Flavor intensity (cattle [5]): 5.9; Juiciness (cattle [5]): 5.7; Off-flavor intensity (cattle [5]): 7.7; Overall tenderness (cattle [5]): 6.1^a; Warmed over flavor (cattle [5]): 8.0
